Experimental data from ChEMBL document CHEMBL1201862, “PubChem BioAssay data set” (2004).
Active and inactive are the calls of the source.

How the values were obtained:
Protein skinhead-1 = target: T1, Protein skinhead-1 (Caenorhabditis elegans, UniProt P34707); assay type: functional
T1 sequence (P34707 whole entry): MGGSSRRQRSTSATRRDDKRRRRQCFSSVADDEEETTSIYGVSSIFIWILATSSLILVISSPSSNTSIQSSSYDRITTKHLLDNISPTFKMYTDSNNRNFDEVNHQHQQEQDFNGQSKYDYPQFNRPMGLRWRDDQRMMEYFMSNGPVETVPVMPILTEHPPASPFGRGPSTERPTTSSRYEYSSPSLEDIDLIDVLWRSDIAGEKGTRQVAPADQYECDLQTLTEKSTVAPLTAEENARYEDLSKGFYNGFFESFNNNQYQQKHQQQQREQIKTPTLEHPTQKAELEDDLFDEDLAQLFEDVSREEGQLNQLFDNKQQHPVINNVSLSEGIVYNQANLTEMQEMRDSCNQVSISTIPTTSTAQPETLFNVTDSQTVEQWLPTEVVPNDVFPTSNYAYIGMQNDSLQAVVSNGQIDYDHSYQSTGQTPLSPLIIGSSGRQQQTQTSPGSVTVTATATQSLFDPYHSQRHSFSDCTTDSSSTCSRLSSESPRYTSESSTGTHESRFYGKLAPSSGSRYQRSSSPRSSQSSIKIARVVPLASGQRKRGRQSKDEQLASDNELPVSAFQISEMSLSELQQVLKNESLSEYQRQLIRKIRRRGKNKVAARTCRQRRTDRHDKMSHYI

Cytochrome P450 2D6 = Cytochrome P450 2D6 (Homo sapiens, UniProt P10635);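 further: CYP2D6 member of a cytochrome P450 panel assay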
Chain of Cytochrome P450 2D6 (P10635 whole entry): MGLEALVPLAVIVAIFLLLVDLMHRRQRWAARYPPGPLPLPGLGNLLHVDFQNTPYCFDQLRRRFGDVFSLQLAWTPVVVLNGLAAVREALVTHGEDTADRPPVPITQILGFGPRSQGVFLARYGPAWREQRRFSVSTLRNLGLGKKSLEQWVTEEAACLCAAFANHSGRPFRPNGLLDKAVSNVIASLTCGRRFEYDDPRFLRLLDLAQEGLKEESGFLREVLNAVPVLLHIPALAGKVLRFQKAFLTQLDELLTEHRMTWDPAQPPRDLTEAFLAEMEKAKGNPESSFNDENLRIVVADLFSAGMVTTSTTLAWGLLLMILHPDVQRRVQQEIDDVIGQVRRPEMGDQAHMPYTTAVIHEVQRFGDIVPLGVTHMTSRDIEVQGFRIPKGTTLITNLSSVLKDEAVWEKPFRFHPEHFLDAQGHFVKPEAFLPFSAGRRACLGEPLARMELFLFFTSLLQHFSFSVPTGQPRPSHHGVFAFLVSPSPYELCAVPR

Cytochrome P450 2C9 = Cytochrome P450 2C9 (Homo sapiens, UniProt P11712)
Chain of Cytochrome P450 2C9 (P11712 whole entry): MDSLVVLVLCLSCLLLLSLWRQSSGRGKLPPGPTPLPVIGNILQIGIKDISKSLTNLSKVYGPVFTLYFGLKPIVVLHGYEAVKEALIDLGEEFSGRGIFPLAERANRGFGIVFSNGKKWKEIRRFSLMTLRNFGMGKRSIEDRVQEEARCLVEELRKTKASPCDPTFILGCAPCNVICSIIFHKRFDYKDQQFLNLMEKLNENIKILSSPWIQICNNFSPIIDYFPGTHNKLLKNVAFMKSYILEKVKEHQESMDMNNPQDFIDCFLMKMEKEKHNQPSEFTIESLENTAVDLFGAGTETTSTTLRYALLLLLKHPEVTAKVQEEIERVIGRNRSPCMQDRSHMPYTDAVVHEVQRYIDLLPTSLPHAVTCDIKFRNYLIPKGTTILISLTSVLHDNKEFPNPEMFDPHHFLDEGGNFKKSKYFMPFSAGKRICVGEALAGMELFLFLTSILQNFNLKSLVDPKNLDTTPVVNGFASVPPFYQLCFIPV

Cytochrome P450 1A2 = target: T2, Cytochrome P450 1A2 (Homo sapiens, UniProt P05177);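 further: PubChem cytochrome P450 panel assay, CYP1A2 panel member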
T2 sequence (P05177 whole entry): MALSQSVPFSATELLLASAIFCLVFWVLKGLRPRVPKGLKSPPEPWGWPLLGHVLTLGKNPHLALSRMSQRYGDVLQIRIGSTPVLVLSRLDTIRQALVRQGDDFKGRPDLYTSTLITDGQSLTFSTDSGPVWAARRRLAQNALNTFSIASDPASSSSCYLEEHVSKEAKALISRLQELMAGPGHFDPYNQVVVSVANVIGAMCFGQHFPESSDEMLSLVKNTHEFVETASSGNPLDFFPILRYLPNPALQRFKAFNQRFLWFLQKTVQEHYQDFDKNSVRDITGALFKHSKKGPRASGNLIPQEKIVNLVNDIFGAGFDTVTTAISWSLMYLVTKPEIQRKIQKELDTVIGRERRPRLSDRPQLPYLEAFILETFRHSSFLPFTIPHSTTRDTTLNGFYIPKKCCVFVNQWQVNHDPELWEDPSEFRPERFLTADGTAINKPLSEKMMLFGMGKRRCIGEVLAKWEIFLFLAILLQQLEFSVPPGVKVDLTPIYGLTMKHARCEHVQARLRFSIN

[1] = microbe, parasite or virus in culture; assay type: functional; conditions: Mycobacterium tuberculosis
[2] = target: T3, RNA-binding protein pos-1 (Caenorhabditis elegans, UniProt G5EF15); test: disruptors of C. elegans POS-1 RNA interaction – biochemical, fluorescence polarization, dose response (AID 1964);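 further: purified POS-1 fused to maltose binding protein made in E. coli; potency of compounds blocking POS-1 binding to fluorescent RNA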
T3 sequence (G5EF15 whole entry): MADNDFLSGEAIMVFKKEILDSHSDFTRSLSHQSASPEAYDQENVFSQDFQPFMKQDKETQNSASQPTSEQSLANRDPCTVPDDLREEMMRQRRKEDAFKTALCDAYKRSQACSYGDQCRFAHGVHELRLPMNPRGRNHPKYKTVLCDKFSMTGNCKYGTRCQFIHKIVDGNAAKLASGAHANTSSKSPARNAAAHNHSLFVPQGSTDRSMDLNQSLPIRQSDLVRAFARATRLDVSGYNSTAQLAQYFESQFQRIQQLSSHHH

[3] = target: T4, Zinc finger protein mex-5 (Caenorhabditis elegans, UniProt Q9XUB2); test: potency of MEX-5 RNA-binding blockers – biochemical, C. elegans, fluorescence polarization, dose response (AID 1960)
T4 sequence (Q9XUB2 whole entry): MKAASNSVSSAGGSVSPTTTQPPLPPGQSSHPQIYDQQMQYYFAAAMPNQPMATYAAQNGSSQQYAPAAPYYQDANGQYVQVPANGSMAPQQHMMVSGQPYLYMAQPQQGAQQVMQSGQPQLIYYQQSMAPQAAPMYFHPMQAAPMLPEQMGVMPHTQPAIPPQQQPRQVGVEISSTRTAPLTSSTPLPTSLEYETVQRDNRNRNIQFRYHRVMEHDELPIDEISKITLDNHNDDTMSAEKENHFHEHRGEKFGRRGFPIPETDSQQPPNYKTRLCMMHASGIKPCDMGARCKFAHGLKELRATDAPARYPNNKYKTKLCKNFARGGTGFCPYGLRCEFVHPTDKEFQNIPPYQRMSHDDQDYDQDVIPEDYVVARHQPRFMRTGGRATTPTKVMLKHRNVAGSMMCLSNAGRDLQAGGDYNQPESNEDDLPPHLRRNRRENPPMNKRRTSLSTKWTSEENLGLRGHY

[4] = viability of HCT116 lacking mutant beta-catenin – cell-based, human colon tumor, dose response (AID 1045); assay type: functional;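 further: HCT116 colon tumor cells with beta catenin knocked out; cells exposed to compound for 60 hours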
[5] = viability of PTEN-deleted HCT116 cells – cell-based, HCT116 PTEN knockout, dose response (AID 1047); assay type: functional;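 further: HCT116 colon tumor cells with PTEN knocked out; cells exposed to compound for 60 hours before readout; potency for loss of cell viability measured by luminescence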
[6] = fluconazole-exposed Candida albicans growth modulators – fluorescence, retest, confirmation (AID 2467); assay type: functional, cell-based
[7] = NIH-3T3 fibroblast cytotoxicity, dose response, cytotoxicity control, cell-based, fluorescence, Alamar Blue, secondary assay (AID 2327); assay type: functional;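 further: NIH-3T3 mouse fibroblasts cultured with fluconazole at 8 µg/mL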

SMILES: Cc1oncc1-c1csc(-c2ccccc2Cl)n1
- IC50 (Protein skinhead-1): > 100 µM (inactive)

SMILES: O[C@@H](c1cc(C(F)(F)F)nc2c(Cl)cc(Cl)cc12)[C@@H]1CCCCN1
- AC50 (Cytochrome P450 2D6): 3.16 µM (inconclusive)

SMILES: Cc1ccc(-c2c(C)nn3c(N4CCOCC4)cc(C)nc23)cc1
- IC50 (Protein skinhead-1): > 100 µM (inactive)

SMILES: COc1ccc(OC)c(S(=O)(=O)N2CCC(C(=O)Nc3ccc(C)c(C)c3)CC2)c1
- AC50 (Cytochrome P450 2C9): inconclusive
- AC50 (Cytochrome P450 1A2): 12.6 µM (inconclusive)

SMILES: Cc1ccc2c(c1)C(c1ccc(N3CCOCC3)cc1)=NNC(c1cccs1)=N2
- CC50 [1]: 38.6 µM (active)

SMILES: CCN(CCO)C[C@H]1CCC[C@H]2CCCC[C@@H]21
- AC50 (Cytochrome P450 2D6): 6.31 µM (inconclusive)

SMILES: CC(C)Cn1c(N)c(C(=O)CSc2nnnn2C)c(=O)n(C)c1=O
- IC50 (Protein skinhead-1): > 100 µM (inactive)

SMILES: Cc1cc2cc(CNC(=O)CCC(=O)O)ccc2n1C
- IC50 (Protein skinhead-1): > 100 µM (inactive)

SMILES: Nc1c(NCCC2=CCCCC2)c(=O)[nH]c(=O)n1Cc1ccccc1
- EC50 [2]: 23.2 µM (active)
- EC50 [3]: 13.9 µM (active)

SMILES: CC(C)(C)C1CCc2sc(-c3nnc(CCl)o3)cc2C1 (configuration not stated)
- CC50 [1]: 21 µM (active)

SMILES: Cc1nn(-c2ccccc2)c(N)c1C(c1ccc(C(C)C)cc1)c1c(C)nn(-c2ccccc2)c1N
- CC50 [1]: > 40 µM (active)

SMILES: CCOc1cc(CNCCSc2nnnn2C)cc(Br)c1OCc1ccc(F)cc1
- IC50 (Protein skinhead-1): 6.7 µM (active)

SMILES: CCN(CC)c1ccc(/C=N/Nc2nc3ccccc3[nH]2)cc1
- EC50 [4]: 2.76 µM (active)
- EC50 [5]: 2.96 µM (active)
- EC50 [6]: > 38 µM (not active)
- EC50 [7]: 6.64 µM (active)

SMILES: CN(C)c1ccc(/C=C(\C#N)C(=O)Nc2nc3c(s2)CCN(Cc2ccccc2)C3)cc1
- IC50 (Protein skinhead-1): > 100 µM (inactive)

SMILES: O=C(NCc1ccco1)c1sc2cc(F)ccc2c1Cl
- IC50 (Protein skinhead-1): > 100 µM (inactive)

SMILES: c1ccc(Cn2nnc3c(NCCN4CCOCC4)ncnc32)cc1
- IC50 (Protein skinhead-1): > 100 µM (inactive)

SMILES: CCn1nnc2sc3c(c2c1=O)CCC(C)C3 (configuration not stated)
- IC50 (Protein skinhead-1): > 100 µM (inactive)
